Experimental data published in the CombiSolv-Exp solvation set (Vermeire and Green 2021).

Assay: solvent given as SMILES

For `CCOP(=S)(OCC)Oc1ccc([N+](=O)[O-])cc1`, the “solvation free energy, 298 K” value (in O) was -6.74 kcal/mol.
For `CC(C)S`, the “solvation free energy, 298 K” value (in O) was -0.7 kcal/mol.
In the case of `CCCCCN`, the “solvation free energy, 298 K” value (in CCCCCCC) is reported as -4.79 kcal/mol and the “solvation free energy, 298 K” value (in O) is reported as -4.13 kcal/mol.
In the case of `Nc1ccc(S(=O)(=O)Nc2nccs2)cc1`, the “solvation free energy, 298 K” value (in O) is reported as -18.2 kcal/mol.
With `O=C(O)Cc1ccccc1Nc1c(Cl)cccc1Cl` the “solvation free energy, 298 K” value (in C1COCCO1) was -19.7 kcal/mol, the “solvation free energy, 298 K” value (in CCCCCO) was -18.4 kcal/mol and the “solvation free energy, 298 K” value (in CCO) was -18.5 kcal/mol. For the same compound, the “solvation free energy, 298 K” value (in CN(C)C=O) was -20 kcal/mol, the “solvation free energy, 298 K” value (in CO) was -18.5 kcal/mol and the “solvation free energy, 298 K” value (in Clc1ccccc1) was -17.7 kcal/mol. For the same compound, the “solvation free energy, 298 K” value (in NC=O) was -17.8 kcal/mol.
With `c1ccc2cc3ccccc3cc2c1` the “solvation free energy, 298 K” value (in Brc1ccccc1) was -11.6 kcal/mol, the “solvation free energy, 298 K” value (in C1CCOC1) was -11.9 kcal/mol and the “solvation free energy, 298 K” value (in C1COCCO1) was -11.5 kcal/mol. For the same compound, the “solvation free energy, 298 K” value (in CC(=O)N(C)C) was -11.5 kcal/mol, the “solvation free energy, 298 K” value (in CC(C)(C)O) was -9.71 kcal/mol and the “solvation free energy, 298 K” value (in CC(C)=O) was -11.2 kcal/mol. The “solvation free energy, 298 K” value (in CC(C)CC(C)(C)C) was -9.93 kcal/mol, the “solvation free energy, 298 K” value (in CC(C)CC(C)O) was -9.89 kcal/mol and the “solvation free energy, 298 K” value (in CC(C)CCCC(C)CCO) was -10.2 kcal/mol. For the same compound, the “solvation free energy, 298 K” value (in CC(C)CCO) was -9.93 kcal/mol, the “solvation free energy, 298 K” value (in CC(C)CO) was -9.77 kcal/mol and the “solvation free energy, 298 K” value (in CC(C)O) was -10 kcal/mol. For the same compound, the “solvation free energy, 298 K” value (in CC(C)OC(C)C) was -10.5 kcal/mol, the “solvation free energy, 298 K” value (in CC(C)OCCO) was -10.8 kcal/mol and the “solvation free energy, 298 K” value (in CC(O)COC(C)(C)C) was -10.5 kcal/mol. The “solvation free energy, 298 K” value (in CCC(C)(C)O) was -9.99 kcal/mol, the “solvation free energy, 298 K” value (in CCC(C)=O) was -11.3 kcal/mol and the “solvation free energy, 298 K” value (in CCC(C)O) was -9.9 kcal/mol. For the same compound, the “solvation free energy, 298 K” value (in CCCC(=O)OC) was -11.2 kcal/mol, the “solvation free energy, 298 K” value (in CCCC(C)CO) was -10 kcal/mol and the “solvation free energy, 298 K” value (in CCCC(C)O) was -9.99 kcal/mol. The “solvation free energy, 298 K” value (in CCCCC(CC)CO) was -10.1 kcal/mol, the “solvation free energy, 298 K” value (in CCCCCC) was -10.2 kcal/mol and the “solvation free energy, 298 K” value (in CCCCCCC) was -10.2 kcal/mol. For the same compound, the “solvation free energy, 298 K” value (in CCCCCCCC) was -10.2 kcal/mol, the “solvation free energy, 298 K” value (in CCCCCCCCCC) was -10.3 kcal/mol and the “solvation free energy, 298 K” value (in CCCCCCCCCCO) was -10.5 kcal/mol. The “solvation free energy, 298 K” value (in CCCCCCCCO) was -10.3 kcal/mol, the “solvation free energy, 298 K” value (in CCCCCCCO) was -10.3 kcal/mol and the “solvation free energy, 298 K” value (in CCCCCCO) was -10.3 kcal/mol. The “solvation free energy, 298 K” value (in CCCCCO) was -10.2 kcal/mol, the “solvation free energy, 298 K” value (in CCCCCOC(C)=O) was -11.1 kcal/mol and the “solvation free energy, 298 K” value (in CCCCCl) was -11.2 kcal/mol. The “solvation free energy, 298 K” value (in CCCCO) was -10.1 kcal/mol, the “solvation free energy, 298 K” value (in CCCCOC(C)=O) was -11.1 kcal/mol and the “solvation free energy, 298 K” value (in CCCCOCCCC) was -10.6 kcal/mol. For the same compound, the “solvation free energy, 298 K” value (in CCCCOCCO) was -10.8 kcal/mol, the “solvation free energy, 298 K” value (in CCCO) was -10 kcal/mol and the “solvation free energy, 298 K” value (in CCCOC(C)=O) was -11.1 kcal/mol. The “solvation free energy, 298 K” value (in CCCOCCO) was -10.8 kcal/mol, the “solvation free energy, 298 K” value (in CCO) was -10.4 kcal/mol and the “solvation free energy, 298 K” value (in CCOC(C)=O) was -11.1 kcal/mol. The “solvation free energy, 298 K” value (in CCOCC) was -10.9 kcal/mol, the “solvation free energy, 298 K” value (in CCOCCO) was -10.7 kcal/mol and the “solvation free energy, 298 K” value (in CN1CCCC1=O) was -12 kcal/mol. The “solvation free energy, 298 K” value (in CN(C)C=O) was -11.6 kcal/mol, the “solvation free energy, 298 K” value (in CNC=O) was -10.4 kcal/mol and the “solvation free energy, 298 K” value (in CO) was -9.89 kcal/mol. The “solvation free energy, 298 K” value (in COC(C)(C)C) was -10.7 kcal/mol, the “solvation free energy, 298 K” value (in COC(C)=O) was -11.1 kcal/mol and the “solvation free energy, 298 K” value (in COC(C)CCO) was -10.7 kcal/mol. For the same compound, the “solvation free energy, 298 K” value (in COCCO) was -10.8 kcal/mol, the “solvation free energy, 298 K” value (in Cc1ccc(C)cc1) was -11.2 kcal/mol and the “solvation free energy, 298 K” value (in Cc1cccc(C)c1) was -11.3 kcal/mol. For the same compound, the “solvation free energy, 298 K” value (in Cc1ccccc1C) was -11.5 kcal/mol, the “solvation free energy, 298 K” value (in ClC(Cl)(Cl)Cl) was -11.2 kcal/mol and the “solvation free energy, 298 K” value (in ClC(Cl)Cl) was -11.5 kcal/mol. For the same compound, the “solvation free energy, 298 K” value (in ClCCl) was -11.8 kcal/mol, the “solvation free energy, 298 K” value (in Clc1ccccc1) was -11.5 kcal/mol and the “solvation free energy, 298 K” value (in Fc1ccccc1) was -11.3 kcal/mol. For the same compound, the “solvation free energy, 298 K” value (in N#Cc1ccccc1) was -11.4 kcal/mol, the “solvation free energy, 298 K” value (in O) was -4.12 kcal/mol and the “solvation free energy, 298 K” value (in O=C1CCCCC1) was -11.6 kcal/mol.
In the case of `C1CO1`, the “solvation free energy, 298 K” value (in O) is reported as -2.87 kcal/mol.
With `CCc1ccc2ccccc2c1` the “solvation free energy, 298 K” value (in O) was -2.26 kcal/mol.
In the case of `C=C(C)C1CC=C(C)C(OC(=O)CCC)C1` (stereo not drawn), the “solvation free energy, 298 K” value (in O) is reported as -3.9 kcal/mol.
For `CCC(C)O` (stereo not drawn), the “solvation free energy, 298 K” value (in Brc1ccccc1) was -4.15 kcal/mol, the “solvation free energy, 298 K” value (in C1COCCO1) was -5.54 kcal/mol and the “solvation free energy, 298 K” value (in CC#N) was -4.82 kcal/mol. The “solvation free energy, 298 K” value (in CC(=O)N(C)C) was -5.89 kcal/mol, the “solvation free energy, 298 K” value (in CC(C)(C)O) was -5.67 kcal/mol and the “solvation free energy, 298 K” value (in CC(C)CC(C)(C)C) was -3.42 kcal/mol. For the same compound, the “solvation free energy, 298 K” value (in CC(C)O) was -5.61 kcal/mol, the “solvation free energy, 298 K” value (in CC(C)OC(C)C) was -4.56 kcal/mol and the “solvation free energy, 298 K” value (in CCC(C)=O) was -5.18 kcal/mol. For the same compound, the “solvation free energy, 298 K” value (in CCCCCC) was -3.56 kcal/mol, the “solvation free energy, 298 K” value (in CCCCCCC) was -3.28 kcal/mol and the “solvation free energy, 298 K” value (in CCCCCCCC) was -3.26 kcal/mol. The “solvation free energy, 298 K” value (in CCCCCCCCCCCCCCCC) was -3.16 kcal/mol, the “solvation free energy, 298 K” value (in CCCCCCCCCCO) was -5.31 kcal/mol and the “solvation free energy, 298 K” value (in CCCCCCCCO) was -5.15 kcal/mol. The “solvation free energy, 298 K” value (in CCCCCl) was -4.17 kcal/mol, the “solvation free energy, 298 K” value (in CCCCO) was -5.5 kcal/mol and the “solvation free energy, 298 K” value (in CCCCOC(C)=O) was -4.9 kcal/mol. The “solvation free energy, 298 K” value (in CCCOCCC) was -4.4 kcal/mol, the “solvation free energy, 298 K” value (in CCOC(=O)c1ccccc1C(=O)OCC) was -4.35 kcal/mol and the “solvation free energy, 298 K” value (in CN(C)C=O) was -5.67 kcal/mol. For the same compound, the “solvation free energy, 298 K” value (in CO) was -6.02 kcal/mol, the “solvation free energy, 298 K” value (in Cc1ccc(C)cc1) was -4.23 kcal/mol and the “solvation free energy, 298 K” value (in Cc1cccc(C)c1) was -4.14 kcal/mol. For the same compound, the “solvation free energy, 298 K” value (in Cc1ccccc1C) was -4.19 kcal/mol and the “solvation free energy, 298 K” value (in Clc1ccccc1) was -4.26 kcal/mol.
For `CN(C)C(=O)c1ccc([N+](=O)[O-])cc1`, the “solvation free energy, 298 K” value (in O) was -11.9 kcal/mol.
In the case of `CCc1ccncc1`, the “solvation free energy, 298 K” value (in O) is reported as -4.73 kcal/mol.
In the case of `ClCCOCCCl`, the “solvation free energy, 298 K” value (in O) is reported as -4.23 kcal/mol.
For `CCC(C)CC`, the “solvation free energy, 298 K” value (in C=CCCCCCCCCCCCCCC) was -3.42 kcal/mol, the “solvation free energy, 298 K” value (in CC#N) was -2.58 kcal/mol and the “solvation free energy, 298 K” value (in CCCCCCCCCCCCCCCC) was -3.55 kcal/mol. For the same compound, the “solvation free energy, 298 K” value (in CCCCCO) was -3.33 kcal/mol, the “solvation free energy, 298 K” value (in CCCCO) was -3.19 kcal/mol and the “solvation free energy, 298 K” value (in O) was 2.47 kcal/mol.
